Laboratory results from ChEMBL document CHEMBL5150000, “Insights on Dengue and Zika NS5 RNA-dependent RNA polymerase (RdRp) inhibitors” (Eur J Med Chem, 2021).

Experiments:
[1] = system: Zika virus; experiment: Antiviral activity against Zika virus infected in African green monkey Vero cells assessed as reduction in viral replication incubated for 24 hrs; format: functional, organism-based
[2] = system: dengue virus type 2; experiment: Antiviral activity against DENV-2 RNA-dependent RNA polymerase infected in human Huh-7 cells assessed as reduction in viral replication by RT-PCR analysis; format: functional, organism-based
[3] = Cytotoxicity against hamster BHK-21 cells; format: toxicity, cell-based, Mesocricetus auratus
[4] = Inhibition of DENV RNA-dependent RNA polymerase in hamster BHK-21 cells; format: cell-based, Dengue virus
[5] = system: dengue virus type 1; experiment: Antiviral activity against DENV-1 infected in African green monkey Vero E6 cells; format: functional, organism-based; details: Vero C1008
[6] = system: dengue virus type 3; experiment: Antiviral activity against DENV-3 infected in African green monkey Vero E6 cells; format: functional, organism-based; details: Vero C1008
[7] = system: Zika virus; experiment: Antiviral activity against Zika virus infected in African green monkey Vero E6 cells; format: functional, organism-based; details: Vero C1008
[8] = system: dengue virus type 4; experiment: Antiviral activity against DENV-4 infected in African green monkey Vero E6 cells; format: functional, organism-based; details: Vero C1008
[9] = system: Dengue virus; experiment: Antiviral activity against DENV RNA-dependent RNA polymerase infected in human PBMC; format: functional, organism-based
[10] = system: Vero; experiment: Inhibition of DENV-2 RNA-dependent RNA polymerase in African green monkey Vero cells measured for 24 to 72 hrs relative to control; format: cell-based; details: dengue virus type 2, time 24-72 hrs, dose or concentration not given here
[11] = Inhibition of DENV RNA-dependent RNA polymerase activity; parameters: species or system Dengue virus
[12] = target: T1, NS5 (Zika virus, UniProt A0A143MHK7); experiment: Inhibition of Zika virus RNA-dependent RNA polymerase activity
T1 sequence (A0A143MHK7 whole entry): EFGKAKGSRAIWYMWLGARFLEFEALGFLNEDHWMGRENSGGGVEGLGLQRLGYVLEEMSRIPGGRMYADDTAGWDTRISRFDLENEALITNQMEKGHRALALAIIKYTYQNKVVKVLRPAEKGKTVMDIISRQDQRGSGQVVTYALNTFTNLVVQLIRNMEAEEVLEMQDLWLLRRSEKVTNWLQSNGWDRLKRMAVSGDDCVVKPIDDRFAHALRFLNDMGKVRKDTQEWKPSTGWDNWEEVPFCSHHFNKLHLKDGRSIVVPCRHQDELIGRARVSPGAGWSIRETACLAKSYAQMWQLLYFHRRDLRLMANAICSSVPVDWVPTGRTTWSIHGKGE

[13] = Cytotoxicity against African green monkey Vero cells; format: toxicity, cell-based; details: chlorocebus sabaeus
[14] = system: Dengue virus; experiment: Antiviral activity against DENV NS5/RNA-dependent RNA polymerase; format: functional, organism-based
[15] = target: Nonstructural protein 5 (Dengue virus) (UniProt V5TFZ2); experiment: Binding affinity to DENV-3 NS5 assessed as gibbs free energy change; details: dengue virus type 3
[16] = target: T2, Nonstructural protein 5 (Dengue virus, UniProt V5TFZ2); experiment: Inhibition of DENV NS5/RNA-dependent RNA polymerase
[17] = target: T1, NS5; experiment: Inhibition of Zika virus wild type RNA-dependent RNA polymerase using ATP as substrate
[18] = system: Zika virus; experiment: Antiviral activity against Zika virus SMGC-1 infected in human Huh-7 cells assessed as reduction in viral titer; format: functional, organism-based; details: SMGC-1, Huh-7
[19] = target: Genome polyprotein (dengue virus type 2, UniProt P29990); experiment: Inhibition of DENV-2 DENV2 NS2B-NS3
Chain of Genome polyprotein (P29990 1346-1475 limits assumed): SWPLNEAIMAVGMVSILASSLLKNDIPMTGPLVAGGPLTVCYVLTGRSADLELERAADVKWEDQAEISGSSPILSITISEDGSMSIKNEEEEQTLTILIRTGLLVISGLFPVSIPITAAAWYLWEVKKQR
Chain of Genome polyprotein (P29990 1476-2093 limits assumed): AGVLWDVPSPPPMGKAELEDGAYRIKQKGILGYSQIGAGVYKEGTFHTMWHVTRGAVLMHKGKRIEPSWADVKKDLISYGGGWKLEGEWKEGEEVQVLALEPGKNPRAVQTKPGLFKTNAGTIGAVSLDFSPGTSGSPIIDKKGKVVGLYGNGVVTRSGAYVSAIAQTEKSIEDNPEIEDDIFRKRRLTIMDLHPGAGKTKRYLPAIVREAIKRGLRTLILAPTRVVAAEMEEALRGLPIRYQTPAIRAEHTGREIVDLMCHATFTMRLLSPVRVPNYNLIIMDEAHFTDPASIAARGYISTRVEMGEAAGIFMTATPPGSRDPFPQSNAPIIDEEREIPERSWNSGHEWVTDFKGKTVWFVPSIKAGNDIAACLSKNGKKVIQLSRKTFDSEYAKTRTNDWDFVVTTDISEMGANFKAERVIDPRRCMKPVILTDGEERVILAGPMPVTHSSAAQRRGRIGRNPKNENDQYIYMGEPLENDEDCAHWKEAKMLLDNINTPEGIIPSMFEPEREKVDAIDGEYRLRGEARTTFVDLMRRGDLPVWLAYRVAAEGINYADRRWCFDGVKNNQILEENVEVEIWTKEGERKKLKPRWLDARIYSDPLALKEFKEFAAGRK

[20] = target: T2, Nonstructural protein 5; experiment: Inhibition of full length His-tagged DENV-2 NS5 incubated for 1 hr; parameters: species or system dengue virus type 2
[21] = target: T2, Nonstructural protein 5; experiment: Inhibition of DENV-4 NS5; parameters: species or system dengue virus type 4
[22] = target: T2, Nonstructural protein 5; experiment: Inhibition of DENV-2 NS5; parameters: species or system dengue virus type 2
[23] = Inhibition od DENV-2 RNA-dependent RNA polymerase; parameters: species or system dengue virus type 2
[24] = target: T3, DNA polymerase alpha catalytic subunit (Homo sapiens) (UniProt P09884); experiment: Inhibition of human DNA polymerase alpha at 100 uM incubated for 60 mins by Microbeta counter analysis
T3 sequence (whole entry): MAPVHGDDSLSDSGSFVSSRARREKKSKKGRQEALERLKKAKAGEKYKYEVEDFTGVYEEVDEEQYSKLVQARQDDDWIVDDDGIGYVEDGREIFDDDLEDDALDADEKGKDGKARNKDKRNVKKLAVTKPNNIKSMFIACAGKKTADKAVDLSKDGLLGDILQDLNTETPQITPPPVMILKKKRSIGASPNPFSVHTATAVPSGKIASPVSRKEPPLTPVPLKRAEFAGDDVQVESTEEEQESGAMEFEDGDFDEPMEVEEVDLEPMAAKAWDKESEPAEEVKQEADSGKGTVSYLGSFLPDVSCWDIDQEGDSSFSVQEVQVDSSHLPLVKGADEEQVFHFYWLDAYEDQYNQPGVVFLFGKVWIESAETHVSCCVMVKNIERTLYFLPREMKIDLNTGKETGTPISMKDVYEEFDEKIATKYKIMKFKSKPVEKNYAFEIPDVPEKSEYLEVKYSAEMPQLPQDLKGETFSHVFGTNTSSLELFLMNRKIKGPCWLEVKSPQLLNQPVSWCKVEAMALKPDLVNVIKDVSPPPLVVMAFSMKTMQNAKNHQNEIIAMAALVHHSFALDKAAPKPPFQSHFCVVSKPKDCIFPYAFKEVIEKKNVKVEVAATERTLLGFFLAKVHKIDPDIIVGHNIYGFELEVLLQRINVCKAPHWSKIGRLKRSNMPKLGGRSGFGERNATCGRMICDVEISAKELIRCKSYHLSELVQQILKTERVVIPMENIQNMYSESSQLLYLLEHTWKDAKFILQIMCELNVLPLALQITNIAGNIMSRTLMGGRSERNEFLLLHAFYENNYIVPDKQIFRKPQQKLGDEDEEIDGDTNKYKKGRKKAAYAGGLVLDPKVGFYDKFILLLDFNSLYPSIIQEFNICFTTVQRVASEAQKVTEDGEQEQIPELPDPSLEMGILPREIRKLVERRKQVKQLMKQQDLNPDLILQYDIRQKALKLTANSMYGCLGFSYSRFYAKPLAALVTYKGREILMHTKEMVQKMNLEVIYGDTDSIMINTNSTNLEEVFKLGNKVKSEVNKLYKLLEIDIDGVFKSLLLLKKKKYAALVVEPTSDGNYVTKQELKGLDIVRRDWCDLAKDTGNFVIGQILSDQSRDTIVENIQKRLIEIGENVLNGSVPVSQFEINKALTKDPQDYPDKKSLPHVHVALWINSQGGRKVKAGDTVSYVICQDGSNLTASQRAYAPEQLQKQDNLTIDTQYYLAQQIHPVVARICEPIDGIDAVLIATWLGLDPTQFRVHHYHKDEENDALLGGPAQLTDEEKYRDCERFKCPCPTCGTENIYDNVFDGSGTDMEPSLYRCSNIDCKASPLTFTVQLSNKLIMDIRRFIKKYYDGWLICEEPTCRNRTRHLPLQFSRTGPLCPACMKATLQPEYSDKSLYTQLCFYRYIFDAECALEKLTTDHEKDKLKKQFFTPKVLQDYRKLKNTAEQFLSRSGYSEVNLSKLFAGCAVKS

[25] = system: Hepacivirus hominis; experiment: Inhibition of C-terminal his6-tagged HCV NS5/RNA-dependent RNA polymerase expressed in Escherichia coli at 100 uM incubated for 2 hrs by Microbeta counter analysis
[26] = target: NS5 (Zika virus) (UniProt A0A143MHK7); experiment: Inhibition of Zika virus RNA-dependent RNA polymerase relative to control; details: concentration not given here
Chain of NS5 (Zika virus) (A0A143MHK7 as listed by the source): as the sequence (A0A143MHK7 whole entry) above

O=C(O)CCNC(=O)c1cc(-c2ccccc2)c(=O)n2c1sc1ccc(C3CCCCC3)cc12
EC50 [1]: 1000 nM
EC50 [2]: 3500 nM

C#Cc1c(C#N)ncn1[C@@H]1S[C@H](CO)[C@@H](O)[C@H]1O
CC50 [3]: > 50000 nM
IC50 [4]: 6570 nM

COc1ccc(-c2cc(C(=O)N[C@@H](Cc3ccc(O)cc3)C(=O)O)c3sc4ccc(OC5CCCCC5)cc4n3c2=O)cc1F
EC50 [5]: 5100 nM
EC50 [6]: 3500 nM
EC50 [7]: 10700 nM
EC50 [8]: 2900 nM

C#C[C@]1(O)[C@H](n2ccc(=O)[nH]c2=O)O[C@](F)(CO[P@](=O)(N[C@@H](C)C(=O)OC(C)C)Oc2ccccc2)[C@H]1O
EC50 [9]: 370 nM

CC(C)[C@H](N)C(=O)OCC(CO)OCn1cnc2c(=O)[nH]c(N)nc21 (stereo not given in full)
inhibition [10]: 10%

C#Cc1c(C#N)ncn1[C@@H]1O[C@H](CO)[C@@H](O)[C@H]1O
CC50 [3]: 3990 nM
IC50 [4]: 550 nM

CCC(CC)COC(=O)[C@H](C)N[P@](=O)(OC[C@H]1O[C@@](C#N)(c2ccc3c(N)ncnn23)[C@H](O)[C@@H]1O)Oc1ccccc1
IC50 [11]: 1400 nM
IC50 [12]: 1360 nM

CCCC/C=C/C#CC#CCCCCCCCC(=O)O [EXOCARPIC ACID]
CC50 [13]: 23000 nM
IC50 [14]: 2200 nM

Cc1cn([C@H]2C=C[C@@H](CO)O2)c(=O)[nH]c1=O
inhibition [10]: 11%

O=C(Nc1nc(-c2cccc3ccccc23)n[nH]1)C1=CNc2ccccc2N1
deltaG [15]: -4.89 kcal/mol

C[C@@]1(O)[C@H](O)[C@@H](COP(=O)(O)OP(=O)(O)OP(=O)(O)O)O[C@H]1n1ccc2c(N)ncnc21
IC50 [12]: 8920 nM

O=C(NCc1ccc(O)cc1)c1cc(-c2ccccc2)c(=O)n2c1sc1ccc(C3CCCCC3)cc12
EC50 [1]: 1000 nM
EC50 [2]: 1800 nM

CCNC(=O)Cn1cnc(NC(=O)c2cc(-c3ccc(C)cc3)nc3onc(C)c23)n1
IC50 [17]: 1130 nM
deltaG [15]: -10.5 kcal/mol
EC50 [18]: 7430 nM

O=C(N[C@@H](Cc1ccc(O)cc1)C(=O)O)c1cc(-c2ccccc2)c(=O)n2c1sc1ccc(OC3CCCCC3)cc12
IC50 [19]: 9610 nM

O=C1N/C(=N\c2nnc(-c3cccc(F)c3)s2)S/C1=C\c1cccc(F)c1
IC50 [20]: 2300 nM

O=C(O)c1ccccc1NS(=O)(=O)c1cccc(-c2cnn(Cc3ccccc3)c2)c1
IC50 [21]: 5200 nM
IC50 [22]: 4600 nM
IC50 [23]: 700 nM
inhibition [24]: 32%
inhibition [25]: 23%

CO[C@@H]1[C@H](O)[C@@H](COP(=O)(O)OP(=O)(O)OP(=O)(O)O)O[C@H]1n1ccc(N)nc1=O
inhibition [26]: 72.2%

O=C(NCCO)c1cc(-c2ccccc2)c(=O)n2c1sc1ccc(C3CCCCC3)cc12
EC50 [1]: 1800 nM
EC50 [2]: 1900 nM
